In patent publication US20090186088A1, “INHALABLE DRUG” (NanoMaterials Technology Pte Ltd, priority 2005, published 2009):

Columns and labels:
[1] = British Pharmacopoeia; cited from earlier work
[2] = format: physicochemical
From the text: The aim of this experiment was to achieve a suspension containing fine Salbutamol sulfate precipitate. […] Alcohol (ethanol) therefore was considered to be the best choice, considering the safety of the possible solvents. The solubility of a solid is a function of the solid particle size according to Equation 1
where R is the gas constant, T the absolute temperature, S and Sr the solubility of large solid particles and of particles having small radius r respectively, and M, σ, and d are the molecular weight, surface tension, and density of the solid respectively. It will be appreciated from Eq. 1 that the solubility of a solid will increase as the particle size decreases. […] Consequently, when one considers the yield of the process, alcohol no longer appears suitable. […] Further, IPA is a commonly used organic solvent.

[3] = Dispersion experiments in multi-stage liquid impinger (MSLI), fine particle fraction; format: physicochemical; settings: beaker-synthesised powder, 60 L/min, 4 seconds
From the text: The measurement of particle sizes in vitro allows a simplistic estimation of the aerodynamic particle size distribution. This process utilizes cascade or impactor devices such as the multi-stage liquid impinger (MSLI) (FIG. 7) to provide a breakdown of the particle size distribution through separation and collection of powder of different Da.
The MSLI consists of 5 stages which have been calibrated at 60 L/min to collect powder of a certain Da, known as the cut-off Da:
At flow rates of 60-100 L/min, the particles which have a Da of less than 5 μm are expected to be able to surpass oropharangeal deposition and the filter of the MSLI from equation 3. From the results of the MSLI, the FPF (fine particle fraction) can be calculated, and expressed as two different forms: […]
The recovery was also calculated for each dispersion which represents the mass of powder which was accounted for compared with the mass which was loaded into the capsules (Equation 6).
The equipment used to perform the dispersion experiments was the MSLI, which has been described earlier. […] The supernatant was then collected. • Step 11: All rinsings were collected into separately labeled glass vials and analyzed by UV immediately to minimize the effect of evaporation, which would produce an overestimation of the concentration collected.

Compound | solubility in alcohol [1] | solubility in ether [1] | solubility in methylene chloride [1] | solubility in water [1] | solubility in IPA [2] | reduction in FPF(emitted), Rotahaler vs Aeroliser [3] [%] | reduction in FPF(total), Rotahaler vs Aeroliser [3] [%]
Salbutamol sulfate | slightly soluble | slightly soluble | very slightly soluble | freely soluble | somewhat lower than in alcohol | ~30 | ~20
CC(C)(C)NCC(O)c1ccc(O)c(CO)c1 (stereo not shown) [Salbutamol base] | soluble | slightly soluble |  | sparingly soluble |  |  | 
